Data from patent EP0656422A1, “Cat assay” (priority 1993, dated 1995).

Molecular target: Chloramphenicol Acetyl Transferase (CAT) (Escherichia coli, UniProt P62577)
Assay: Acetylation by CAT with ¹⁴C acetyl coenzyme A, TLC and autoradiography
Format: biochemical
Settings: analogue 2 mM stock 80 µl, CAT enzyme 3.75 units, ¹⁴C acetyl coenzyme A 0.1 µCi, 37°C for 90 minutes; no band in no enzyme control
Procedure: Biotinylated chloramphenicol analogue (compound 2) was dissolved to a concentration of 2 mmolar in 50% methanol. ¹⁴C acetyl coenzyme A (50 µCi/ml, […]) was obtained commercially.
In a microcentrifuge tube were mixed Tris/HCl (1M, pH 7.8) 7.5 µl, biotinylated chloramphenicol analogue (2 mM) 80 µl, CAT enzyme 3.75 units and ¹⁴C acetyl coenzyme A 2 µl (0.1 µCi). The mix was incubated at 37°C for 90 minutes. A control reaction which contained no enzyme was performed in parallel. 20 µl of each reaction was spotted on to a cellulose TLC plate which was developed in 95/5 chloroform methanol. The TLC plate was exposed to autoradiographic film.
The lane corresponding to the reaction to which enzyme was added contains a spot which migrated under the influence of the solvent. This band is acetylated, biotinylated chloramphenicol analogue. No corresponding band is visible in the no enzyme control.

Chloramphenicol Acetyl Transferase (CAT), sequence (P62577 whole entry, looked up): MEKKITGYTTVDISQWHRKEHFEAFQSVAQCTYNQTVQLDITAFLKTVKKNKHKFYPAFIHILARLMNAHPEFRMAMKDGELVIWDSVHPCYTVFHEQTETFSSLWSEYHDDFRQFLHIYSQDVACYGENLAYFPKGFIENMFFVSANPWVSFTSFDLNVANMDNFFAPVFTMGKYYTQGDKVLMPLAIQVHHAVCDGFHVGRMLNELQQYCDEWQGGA

SMILES: CC(=O)N[C@H](CO)[C@H](O)c1ccc(NC(=O)CCCCCNC(=O)CCCC[C@@H]2SC[C@@H]3NC(=O)N[C@@H]32)cc1 [Compound 2, 6-biotinylamino-N[4-(N-acetyl-1-(2-amino-1,3-propandiol))phenyl]hexamide]
- substrate of CAT (acetylated product band on TLC): is a substrate of CAT
